Results reported in US11028087B2, “2,6-disubstituted-9-cyclopentyl-9H-purines, use thereof as medicaments, and pharmaceutical compositions” (UNIVERZITA PALACKEHO V OLOMOUCI, priority 2017, dated 2021).
Read-outs that look alike come from different tables or passages of the source.

Legend:
FLT3 WT = target: T1, FLT3 WT (Homo sapiens, UniProt P36888); assay: Kinase inhibition assay with [γ-33P]ATP; format: biochemical; details: AGLT substrate, 1 μM ATP
T1 construct: purchased ProQinase GmbH
T1 sequence (P36888 27-993): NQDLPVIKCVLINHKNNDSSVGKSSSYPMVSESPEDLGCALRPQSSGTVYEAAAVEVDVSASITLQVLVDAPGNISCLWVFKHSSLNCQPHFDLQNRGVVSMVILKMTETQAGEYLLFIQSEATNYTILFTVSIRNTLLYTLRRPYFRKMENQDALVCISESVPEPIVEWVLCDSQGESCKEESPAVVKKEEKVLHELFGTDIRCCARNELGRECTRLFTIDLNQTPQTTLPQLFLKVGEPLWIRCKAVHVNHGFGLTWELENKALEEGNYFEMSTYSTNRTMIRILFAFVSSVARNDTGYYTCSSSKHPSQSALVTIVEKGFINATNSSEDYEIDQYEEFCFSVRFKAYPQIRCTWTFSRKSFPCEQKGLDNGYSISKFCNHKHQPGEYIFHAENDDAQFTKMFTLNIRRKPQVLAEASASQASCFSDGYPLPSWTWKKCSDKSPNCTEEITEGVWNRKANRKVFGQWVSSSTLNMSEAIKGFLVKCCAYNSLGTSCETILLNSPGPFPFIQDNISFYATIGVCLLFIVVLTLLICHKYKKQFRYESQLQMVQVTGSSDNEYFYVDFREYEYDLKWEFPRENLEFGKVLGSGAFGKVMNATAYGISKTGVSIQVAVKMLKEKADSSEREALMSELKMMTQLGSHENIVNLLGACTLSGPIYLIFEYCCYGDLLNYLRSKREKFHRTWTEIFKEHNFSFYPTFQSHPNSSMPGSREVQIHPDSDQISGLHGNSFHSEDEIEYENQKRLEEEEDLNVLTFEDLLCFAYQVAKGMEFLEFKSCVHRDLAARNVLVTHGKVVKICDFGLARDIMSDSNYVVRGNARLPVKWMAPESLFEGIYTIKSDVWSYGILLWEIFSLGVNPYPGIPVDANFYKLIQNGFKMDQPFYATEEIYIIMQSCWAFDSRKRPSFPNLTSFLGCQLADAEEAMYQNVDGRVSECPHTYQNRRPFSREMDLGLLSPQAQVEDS
Procedure, shortened: (§1)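 Radiometric [γ-33P]ATP assay in HEPES pH 7.5 with Mg2+/Mn2+: CDK1/Cyclin B (Sf9-expressed) and purchased CDK5/p35 with 1 mg/mL histone H1 at 15 and 0.15 μM ATP respectively; FLT3 WT and FLT3-ITD with AGLT substrate at 1 μM ATP. Reactions stopped with H3PO4, spotted onto phosphocellulose and washed.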

FLT3-ITD = target: T2, FLT3-ITD (Homo sapiens, UniProt P36888); assay: Kinase inhibition assay with [γ-33P]ATP; format: biochemical
T2 sequence (P36888 1-993): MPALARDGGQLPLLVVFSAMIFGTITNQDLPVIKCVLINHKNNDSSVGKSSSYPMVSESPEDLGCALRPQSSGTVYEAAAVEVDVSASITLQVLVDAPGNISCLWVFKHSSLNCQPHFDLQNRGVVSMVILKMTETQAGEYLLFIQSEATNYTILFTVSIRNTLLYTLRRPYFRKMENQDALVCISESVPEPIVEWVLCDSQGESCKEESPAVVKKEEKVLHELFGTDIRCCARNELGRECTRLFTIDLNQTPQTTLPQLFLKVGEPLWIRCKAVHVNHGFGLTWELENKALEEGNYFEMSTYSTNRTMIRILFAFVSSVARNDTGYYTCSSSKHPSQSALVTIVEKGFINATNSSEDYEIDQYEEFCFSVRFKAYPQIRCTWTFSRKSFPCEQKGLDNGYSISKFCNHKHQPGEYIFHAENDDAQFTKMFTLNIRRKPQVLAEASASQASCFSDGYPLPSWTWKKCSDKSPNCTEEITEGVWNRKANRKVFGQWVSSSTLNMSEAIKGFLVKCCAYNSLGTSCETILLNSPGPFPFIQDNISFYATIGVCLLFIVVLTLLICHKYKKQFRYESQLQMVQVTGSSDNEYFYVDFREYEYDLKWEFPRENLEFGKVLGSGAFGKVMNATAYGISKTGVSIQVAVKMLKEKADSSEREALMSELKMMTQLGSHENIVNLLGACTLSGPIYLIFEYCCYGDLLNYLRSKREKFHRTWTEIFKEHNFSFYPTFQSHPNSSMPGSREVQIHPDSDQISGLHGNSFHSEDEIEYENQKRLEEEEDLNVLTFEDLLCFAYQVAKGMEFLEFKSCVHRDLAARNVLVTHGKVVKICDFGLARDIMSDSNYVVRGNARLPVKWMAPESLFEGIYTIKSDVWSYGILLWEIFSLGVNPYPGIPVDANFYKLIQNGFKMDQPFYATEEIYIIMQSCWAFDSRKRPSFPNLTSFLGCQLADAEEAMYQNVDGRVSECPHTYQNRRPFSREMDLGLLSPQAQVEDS
Procedure, shortened: as §1

[1] = AGLT substrate, 1 μM ATP, read-out: IC50 values (μM) FLT3 ITD

IC50 (FLT3 WT) [µM]	IC50 (FLT3-ITD; [1]) [µM]	Structure (SMILES)	IC50 (FLT3-ITD; comparative example, read-out: Influence of compounds on protein kinase inhibition, IC50 values (μM) FLT3 ITD) [µM]
0.023	0.004	NCCCCNc1nc(Nc2ccc(N3CCOCC3)cc2)c2ncn(C3CCCC3)c2n1 [Compound 265]	–
0.01	0.003	NCCCCNc1nc(Nc2ccc(N3CC4(COC4)C3)nc2)c2ncn(C3CCCC3)c2n1 [Compound 28]	–
0.015	0.004	NC1CCC(Nc2nc(Nc3ccc(CN4CCNCC4)cc3)c3ncn(C4CCCC4)c3n2)CC1 (stereo not drawn) [Compound 2]	–
0.013	0.002	CCN1CCN(c2ccc(Nc3nc(NCCCCN)nc4c3ncn4C3CCCC3)cc2)CC1 [Compound 266]	–
0.09	0.012	CN(C)CCCNc1nc(Nc2ccc(C(=O)N3CCOCC3)nc2)c2ncn(C3CCCC3)c2n1 [Compound 179]	–
0.013	–	NC1CCC(Nc2nc(Nc3ccc(N4CC5(COC5)C4)cc3)c3ncn(C4CCCC4)c3n2)CC1 (stereo not drawn) [Compound 272]	–
0.021	0.003	NC1CCC(Nc2nc(Nc3ccc(N4CCCC4)cc3)c3ncn(C4CCCC4)c3n2)CC1 (stereo not drawn) [Compound 263]	–
0.021	0.007	CN1CCN(C(=O)c2ccc(Nc3nc(NC4CCC(N)CC4)nc4c3ncn4C3CCCC3)cc2)CC1 (stereo not drawn) [Compound 3]	–
0.019	0.002	CN1CCN(C(=O)c2ccc(Nc3nc(NCCCCN)nc4c3ncn4C3CCCC3)cc2)CC1 [Compound 27]	–
0.014	0.004	NCCNc1nc(Nc2ccc(CN3CCNCC3)cc2)c2ncn(C3CCCC3)c2n1 [Compound 14]	–
0.011	0.003	CN(C)CCNc1nc(Nc2ccc(CN3CCOCC3)nc2)c2ncn(C3CCCC3)c2n1 [Compound 172]	–
0.026	0.005	CN1CC2(C1)CN(c1ccc(Nc3nc(NC4CCC(O)CC4)nc4c3ncn4C3CCCC3)cc1)C2 (stereo not drawn) [Compound 7]	–
0.023	0.002	NC1CCC(Nc2nc(Nc3ccc(N4CCOCC4)cc3)c3ncn(C4CCCC4)c3n2)CC1 (stereo not drawn) [Compound 1]	–

Structure (SMILES)	IC50 (FLT3 WT) [µM]	IC50 (FLT3-ITD; [1]) [µM]	IC50 (FLT3-ITD; comparative example, read-out: Influence of compounds on protein kinase inhibition, IC50 values (μM) FLT3 ITD) [µM]
NC1CCC(Nc2nc(Nc3ccc(CN4CCOCC4)cc3)c3ncn(C4CCCC4)c3n2)CC1 (stereo not drawn) [Compound 264]	0.013	0.001	0.001
NCCCCNc1nc(Nc2ccc(CN3CCOCC3)cc2)c2ncn(C3CCCC3)c2n1 [Compound 270]	0.006	0.002	–
